According to patent publication US8586557B2, “Therapy of p53 mutant colon adenocarcinoma, breast cancer and lung cancer” (Peter MacCallum Cancer Institute, priority 2009, dated 2013):

Key:
Format in all cases: cell-based, human
Cdc25C promoter = assay: Luciferase reporter assay pCCAAT-cdc25CLUC in SKBR3; conditions: SKBR3, adriamycin 0.5 μg/ml
Method: (§1) For LacZi-SKBR3 and PML3i-SKBR3, cells (1.5×10^5) were transiently transfected with expression plasmids, reporter constructs, and 0.51 μg of CMV β-galactosidase plasmid (pcDNA3-β-gal vector) as an internal control for transfection efficiency. Precipitates were removed and cells were treated with 0.5 μg/ml ADR for 48 hr. Luciferase activity was assayed on whole-cell extract, as described (Manni et al.). The luciferase values were normalized to β-galactosidase activity and protein content.
(§2) In addition, the effect of PML down-regulation on the transcription of the mutant p53 targets cyclin B2 and Cdc25C, in response to genotoxic stress, was examined in the endogenous mutant p53^175 background of SKBR3 cells. SKBR3 cells were transfected with either PML3i (SEQ ID No: 3) or shp53 (GACTCCAGTGGTAATCTA; SEQ ID No: 10), and luciferase reporter constructs for either Cyclin B2 or Cdc25c. After 24 hours, the cells were exposed to adriamycin (0.5 μg/ml). Down regulation of p53 suppressed the induction of both promoters (FIG. 6B(i) and (ii), respectively). […] The suppression of endogenous cyclin B2 and Cdc25C in response to either p53 or PML down-regulation, under the influence of Adriamycin, was also confirmed at the RNA level by RT-PCR (FIG. 6C).

SKBR3 cells = assay: Trypan blue dye exclusion after Adriamycin exposure; conditions: SKBR3, Adriamycin 0.5 μg/mL 24 h
Method: Expression of certain p53 mutants confers cells with some resistance to genotoxic stress (Strano et al.). It was therefore important to define whether PML contributes to this biological effect of mutant p53. To this end PML expression was down regulated in SKBR3 cells and cells were exposed to 0.5 μg/ml Adriamycin for 24 h. The effect on cell survival was determined by Trypan blue dye exclusion. Down regulation of PML reduced the numbers of live cells (FIG. 6A(i)), whereas no significant increase in cell death was identified (FIG. 6A(ii)).

[1] = system: H1299 cells expressing exogenous mutant p53^175; assay: Cell cycle analysis and flow cytometry; conditions: H1299 bearing mutant p53^175
Method: (§3) To ascertain the influence of PML levels on the proliferation of HT29 human cancer cells, they were subjected initially to metabolic evaluation using an MTT assay and cell cycle analysis using BrdUrd incorporation. […] This reduction was consistent with the reduced growth rate, but cannot explain the marked difference in cell numbers. It is important to clarify that because the MTT assay involved plating cells of equal number 24 hours in advance of each assay time point, there was continual selection for live cells, which is likely to have masked the accrued effects detected with longer-term plating for the flow cytometric analysis and the colony assay. […] To further substantiate the mutant p53 dependence of cell cycle perturbation induced through PML knockdown, H1299 cells either without, or bearing mutant p53^175, were subjected to cell cycle analysis and flow cytometry (FIG. 10).

p53 null H1299 cells = assay: Cell cycle analysis and flow cytometry
Method: as §3

cyclin B2 RNA = assay: RT-PCR of endogenous mutant p53 target in SKBR3; conditions: SKBR3, under Adriamycin
Excerpt: (§4) Cellular RNA was isolated by Tri-Reagent (MRC Inc.; Cincinnati, Ohio, USA) using the manufacture's instructions, DNA was removed from the samples using DNase treatment (DNA-free kit, Ambion Applied Biosystems; Foster City, Calif., USA), cDNA was synthesized from the purified RNA using M-MLV Reveres Transcription kit (Promega, Madison, Wis., USA). Primers for ribosomal 18S were forward: […] (SEQ ID No: 6); and reverse: […] (SEQ ID No: 7). Primers for PML were forward: CGCCCTGGATAACGTCTTT (SEQ ID No: 8) and reverse: ACTGTGGCTGCTGTCAAGG (SEQ ID No: 9).
as §2

Cdc25C RNA = assay: RT-PCR of endogenous mutant p53 target in SKBR3; conditions: SKBR3, under Adriamycin
Excerpt: as §4, §2

Cyclin B2 promoter = assay: Luciferase reporter assay pCCAAT-B2LUC in SKBR3; conditions: SKBR3, adriamycin 0.5 μg/ml
Method: as §1, §2

[2] = system: p53 Thr18 phosphorylation; assay: Immunoblot of IR-induced p53 Thr18 phosphorylation in NB4 cells; conditions: As2O3 1 μM 4 h, γ-IR 5Gy
Method: (§5) Western blot analysis and immunoprecipitation assays were carried out as previously described (Louria-Hayon et al.). The antibodies used in this study were: anti-human p53 monoclonal antibodies PAb1801 and D01, anti-phospho-p53 Thr^18 polyclonal antibody (Saito et al.), anti-phospho-p53 Ser^20 polyclonal antibody (Cell Signaling Technology, Beverly, Mass., USA); anti-PML monoclonal antibody (clone PML-97; Sigma Chemical Co., St Louis, Mo., USA), anti-GFP (Roche Applied Science, Mannheim, Germany), HRP-conjugated goat anti-mouse IgG, Envision peroxidase anti-mouse or anti-rabbit (Dako Corp., Glostrup, Denmark). The antibodies anti-p53 goat polyclonal antibody (FL-393, AC), anti-p53 rabbit polyclonal antibody (FL-393, FC) and anti-PML polyclonal rabbit antibody ((H-238) sc-5621) were from Santa Cruz Biotechnology, Santa Cruz, Calif., USA.
The inventors have previously shown that PML facilitates the phosphorylation of wt p53 at Ser^20 by check-point kinase 2 (Chk2; Louria-Hayon et al.) and Thr^18 by CK1 (Alsheich-Bartok et al.). These observations raised the surprising possibility that PML may also facilitate the phosphorylation of mutant p53.

SW480 cells [3] = assay: Flow cytometry of live/dead cells by propidium iodide exclusion
Method: (§6) Cells were cultured in the absence or presence of doxycyclin (0.2 μg/ml added every second day) for three days then 25,000 cells were plated (with doxycyclin maintainance in culture for continued shRNA induction) and harvested at selected time points. Cells adherent to the plate were released with trypsin-EDTA and combined with those suspended in the culture supernatant prior to flow cytometric analysis of live cell numbers, as discriminated by propidium iodide exclusion using a cell sorter (FACSCalibur) harnessed to CellQuest software (BD Biosciences; San Jose, Calif., USA).

HT29 cells [4] = assay: as above
Method: as §6

SW480 cells [5] = assay: Colony formation assay; conditions: SW840 as printed, doxycycline-induced PML knockdown for 21 d
Method: (§7) Cancer cell lines were plated (700 per well) in 5 cm diameter dishes in the absence or presence of tetracycline (0.2 μg/ml added every second day) for 21 days. At harvest the cells were fixed in ethanol and stained in 0.1% crystal violet.

HT29 cells [6] = assay: Colony formation assay; conditions: HT29, doxycycline-induced PML knockdown for 21 d
Method: as §7

PML transcript = assay: RT-PCR of PML transcript after shRNA knock-down
Excerpt: as §4

HT29 cells [7] = assay: Cell cycle analysis by BrdUrd incorporation; conditions: for relative number of cells cycling through the S-phase: versus parental line
Method: Cells were plated 2×10^6/10 cm dish and allowed to recover 24 h. BRDU was incorporated (20 μM, 4 h), prior to cell harvest with trypsin-EDTA and fixation in 70% methanol, −20° C. overnight. BRDU detection was undertaken subsequent to sequential rehydration in HCl(2N)/Triton-X(0.5%) then incubation in Boric acid (0.1M), anti-DRDU FITC antibody (BD Biosciences; San Jose, Calif., USA) in PBS/BSA(1%)/Triton-X(0.5%). DNA was labeled using propidium iodide 0.5 mg/ml and incorporation was analyzed using the FACs calibur (BD Biosciences; San Jose, Calif., USA)

HT29 cells [8] = assay: MTT metabolic assay; conditions: HT29, 3, 4 and 11 days of doxycycline exposure, compared with control w-shPML1
Method: Cells either untreated or treated with doxycyclin (0.2 μg/ml) to knock down PML were plated 4000 per well in a 96 well plate and allowed to recover for 24 h. 3-(4,5-Dimethylthiazolyl-2)-2,5-diphenyltetrazolium bromide (MTT, […] final concentration) was added to the wells and the experiment was terminated after an additional 4 h incubation, by aspiration of the liquid and addition of 200 μl of DMSO. The absorbance was read at 540 nm, relative to a reference wavelength of 630 nm (Mosmann et al.).

PML = assay: Western blot of PML knock-down by shRNA
Excerpt: Cell lines in which PML was inducibly knocked-down were generated by co-infection with a lentivirus (pLVTHM) expressing the short hairpin RNA (shRNA) PML target sequence GACCAACAACATCTTCTGC (shPML1; SEQ ID No: 1) or AGATGCAGCTGTATCCAAG (shPML2; SEQ ID No: 2; Tavalai et al.) and a lentivirus expressing a tetracycline repressor (pLV-Ttrkrab-Red). Control cell lines with shLacZ and relevant wobble shPML control sequences GACCAACAATATATTCTGC (w-shPML1; SEQ ID No: 4) and AGATGCAGCTGTATCCAAG (w-shPML2; SEQ ID No: 5) were also generated under the control of a tetracycline repressor. PMLi to target sequence GAGTCGGCCGACTTCTGGT (SEQ ID No: 3; Bruno et al), referred to subsequently as PML3i was transfected into SKBR3 cells using Lipofectamine™ 2000 (Invitrogen Corporation, Carlsbad, Calif. 92008 USA), according to the manufacturer's instructions.
as §5

[9] = HT29, 3 days of doxycyclin induction
[10] = HT29, 8 days of continuous PML knock down

Row | Substance | Cdc25C promoter activity (luciferase) (Cdc25C promoter) | G2 [1] | cell cycle profile (p53 null H1299 cells) | endogenous cyclin B2 RNA level (cyclin B2 RNA) | endogenous Cdc25C RNA level (Cdc25C RNA) | Cyclin B2 promoter activity (luciferase) (Cyclin B2 promoter) | relative number of cells cycling through the S-phase (HT29 cells [7]; [9]) | expression of major PML isoforms (PML; HT29, doxycycline 72 h) | expression of major PML isoforms (PML; SW480, doxycycline 72 h) | also measured
1 | PML3i: siRNA to PML target sequence GAGTCGGCCGACTTCTGGT (Bruno et al), transfected with Lipofectamine 2000 (listed as DNA, chemistry not given here) | reduced | striking increase | not disrupted | suppression | suppression | reduced |  |  |  | cell death (SKBR3 cells): without significant cell death; live cell numbers (SKBR3 cells): slightly reduced
2 | arsenic trioxide [As2O3] |  |  |  |  |  |  |  |  |  | IR-induced phosphorylation of p53 on Thr18 [2]: facilitated
3 | shPML1: lentivirus-expressed, doxycycline-inducible short hairpin RNA to PML target sequence GACCAACAACATCTTCTGC |  |  |  |  |  |  | comparable | reduced | reduced | cell death (SW480 cells [3]; SW480, 7 or 8 days of PML down regulation): modest increase; number of live cells (SW480 cells [3]; SW480, 7 or 8 days of doxycyclin exposure): significantly reduced; cell death (HT29 cells [4]; HT29, 7 or 8 days of PML down regulation): modest increase; number of live cells (HT29 cells [4]; HT29, 7 or 8 days of doxycyclin exposure): significantly reduced; inhibition of colony formation (SW480 cells [5]): > 70%; inhibition of colony formation (HT29 cells [6]): > 90%; PML transcript level (PML transcript; HT29, RT-PCR normalized to 18 s): reduction; PML transcript level (PML transcript; SW480, RT-PCR normalized to 18 s): reduction; level of G1 (HT29 cells [7]; [9]): slightly higher; level of G2 (HT29 cells [7]; [9]): lower; BrdUrd incorporation into the S-phase (HT29 cells [7]; [10]): reduced markedly; G1 (HT29 cells [7]; [10]): increases; G2 (HT29 cells [7]; [10]): increases; rate of metabolism (MTT) (HT29 cells [8]): slightly lower
4 | shp53: RNA interference construct to p53, GACTCCAGTGGTAATCTA [reference compound] | suppressed | striking increase | not disrupted | suppression | suppression | suppressed |  |  |  | 
5 | w-shPML1: wobble shPML control sequence GACCAACAATATATTCTGC [reference compound] |  |  |  |  |  |  | comparable | failed to reduce PML levels | failed to reduce PML levels | 
